≈ marks a conversion by molar mass, not a printed value.
What was measured:
A-375 = assay: cells; conditions: Homo sapiens
[1] = Solubility in 20% hydroxyl propyl beta-cyclodextrin; type: physicochemical; conditions: 20% hydroxypropyl beta-cyclodextrin solution
HCT-116 = assay: cells; conditions: Homo sapiens
[2] = target: Vascular endothelial growth factor receptor 2 (Homo sapiens, UniProt P35968); assay: Inhibition of VEGFR2
[3] = Inhibition of Aurora2; set-up: species or system Homo sapiens
HeLa = assay: cells; conditions: Homo sapiens
[4] = Half life in rat at 10 mg/kg, po; type: ADME, organism-based; set-up: dose 10 mg/kg, route oral; conditions: in vivo
[5] = Half life in rat at 2 mg/kg, iv; type: ADME, organism-based; set-up: dose 2 mg/kg, route intravenous; conditions: in vivo
Rattus norvegicus = assay: (§1) AUC in rat at 2 mg/kg, iv; type: ADME, organism-based, Plasma; set-up: dose 2 mg/kg, route intravenous; conditions: in vivo
[6] = Cmax in rat at 10 mg/kg, po; type: ADME, organism-based; set-up: dose 10 mg/kg, route oral; conditions: in vivo
[7] = Oral bioavailability in rat at 10 mg/kg; type: ADME, organism-based; conditions: in vivo
[8] = Cmax in rat at 2 mg/kg, iv; type: ADME, organism-based; set-up: dose 2 mg/kg, route intravenous; conditions: in vivo
[9] = AUC in rat at 10 mg/kg, po; type: ADME, organism-based; set-up: dose 10 mg/kg, route oral; conditions: plasma
[10] = target: Receptor tyrosine-protein kinase erbB-2 (Homo sapiens, UniProt P04626); assay: Inhibition of HER2
[11] = target: Proto-oncogene tyrosine-protein kinase receptor Ret (Homo sapiens, UniProt P07949); assay: Inhibition of RET
[12] = target: Cyclin-dependent kinase 1 (Homo sapiens, UniProt P06493); assay: Inhibition of CDK1
[13] = Clearance in rat at 2 mg/kg, iv; type: ADME, organism-based; set-up: dose 2 mg/kg, route intravenous; conditions: in vivo
[14] = as §1; type: ADME, organism-based, Plasma; set-up: dose 2 mg/kg, route intravenous; conditions: plasma

Proto-oncogene tyrosine-protein kinase receptor Ret, sequence (P07949 whole entry): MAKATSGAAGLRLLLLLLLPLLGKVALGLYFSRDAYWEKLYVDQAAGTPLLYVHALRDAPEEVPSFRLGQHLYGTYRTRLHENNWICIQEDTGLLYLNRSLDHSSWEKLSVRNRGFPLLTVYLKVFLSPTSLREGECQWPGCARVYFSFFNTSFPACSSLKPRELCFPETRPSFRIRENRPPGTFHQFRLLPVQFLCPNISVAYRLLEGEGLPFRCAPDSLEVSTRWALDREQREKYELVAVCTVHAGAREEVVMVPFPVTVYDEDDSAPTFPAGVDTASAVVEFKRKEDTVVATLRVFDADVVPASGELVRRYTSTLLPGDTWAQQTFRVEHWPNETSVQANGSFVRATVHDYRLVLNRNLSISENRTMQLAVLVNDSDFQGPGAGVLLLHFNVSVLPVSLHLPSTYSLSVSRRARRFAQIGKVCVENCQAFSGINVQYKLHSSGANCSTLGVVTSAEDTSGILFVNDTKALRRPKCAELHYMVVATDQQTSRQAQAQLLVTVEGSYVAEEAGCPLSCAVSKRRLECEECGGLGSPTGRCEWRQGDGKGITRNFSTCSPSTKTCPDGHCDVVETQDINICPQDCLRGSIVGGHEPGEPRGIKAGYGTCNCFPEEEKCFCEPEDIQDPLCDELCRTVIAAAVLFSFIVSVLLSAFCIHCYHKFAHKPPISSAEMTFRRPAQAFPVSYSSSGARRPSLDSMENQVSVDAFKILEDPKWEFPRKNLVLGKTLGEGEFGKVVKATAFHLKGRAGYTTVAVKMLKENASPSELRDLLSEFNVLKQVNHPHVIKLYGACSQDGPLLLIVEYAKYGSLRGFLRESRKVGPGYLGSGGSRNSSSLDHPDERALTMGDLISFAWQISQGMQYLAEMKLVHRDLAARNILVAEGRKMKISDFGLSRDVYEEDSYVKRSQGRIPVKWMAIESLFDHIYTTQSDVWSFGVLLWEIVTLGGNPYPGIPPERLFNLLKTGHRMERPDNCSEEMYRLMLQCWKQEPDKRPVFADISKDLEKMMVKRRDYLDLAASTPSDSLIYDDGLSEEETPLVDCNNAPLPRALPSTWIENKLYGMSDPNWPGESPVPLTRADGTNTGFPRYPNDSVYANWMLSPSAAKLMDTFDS
Cyclin-dependent kinase 1, sequence (P06493 whole entry): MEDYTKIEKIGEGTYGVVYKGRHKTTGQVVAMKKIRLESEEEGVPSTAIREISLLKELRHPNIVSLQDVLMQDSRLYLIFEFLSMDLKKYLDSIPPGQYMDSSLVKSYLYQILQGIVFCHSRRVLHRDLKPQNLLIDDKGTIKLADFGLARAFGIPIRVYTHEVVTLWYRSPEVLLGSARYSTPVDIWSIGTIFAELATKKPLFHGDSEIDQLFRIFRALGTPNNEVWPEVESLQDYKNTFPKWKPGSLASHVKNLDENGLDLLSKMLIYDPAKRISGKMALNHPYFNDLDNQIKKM
Vascular endothelial growth factor receptor 2, sequence (P35968 whole entry): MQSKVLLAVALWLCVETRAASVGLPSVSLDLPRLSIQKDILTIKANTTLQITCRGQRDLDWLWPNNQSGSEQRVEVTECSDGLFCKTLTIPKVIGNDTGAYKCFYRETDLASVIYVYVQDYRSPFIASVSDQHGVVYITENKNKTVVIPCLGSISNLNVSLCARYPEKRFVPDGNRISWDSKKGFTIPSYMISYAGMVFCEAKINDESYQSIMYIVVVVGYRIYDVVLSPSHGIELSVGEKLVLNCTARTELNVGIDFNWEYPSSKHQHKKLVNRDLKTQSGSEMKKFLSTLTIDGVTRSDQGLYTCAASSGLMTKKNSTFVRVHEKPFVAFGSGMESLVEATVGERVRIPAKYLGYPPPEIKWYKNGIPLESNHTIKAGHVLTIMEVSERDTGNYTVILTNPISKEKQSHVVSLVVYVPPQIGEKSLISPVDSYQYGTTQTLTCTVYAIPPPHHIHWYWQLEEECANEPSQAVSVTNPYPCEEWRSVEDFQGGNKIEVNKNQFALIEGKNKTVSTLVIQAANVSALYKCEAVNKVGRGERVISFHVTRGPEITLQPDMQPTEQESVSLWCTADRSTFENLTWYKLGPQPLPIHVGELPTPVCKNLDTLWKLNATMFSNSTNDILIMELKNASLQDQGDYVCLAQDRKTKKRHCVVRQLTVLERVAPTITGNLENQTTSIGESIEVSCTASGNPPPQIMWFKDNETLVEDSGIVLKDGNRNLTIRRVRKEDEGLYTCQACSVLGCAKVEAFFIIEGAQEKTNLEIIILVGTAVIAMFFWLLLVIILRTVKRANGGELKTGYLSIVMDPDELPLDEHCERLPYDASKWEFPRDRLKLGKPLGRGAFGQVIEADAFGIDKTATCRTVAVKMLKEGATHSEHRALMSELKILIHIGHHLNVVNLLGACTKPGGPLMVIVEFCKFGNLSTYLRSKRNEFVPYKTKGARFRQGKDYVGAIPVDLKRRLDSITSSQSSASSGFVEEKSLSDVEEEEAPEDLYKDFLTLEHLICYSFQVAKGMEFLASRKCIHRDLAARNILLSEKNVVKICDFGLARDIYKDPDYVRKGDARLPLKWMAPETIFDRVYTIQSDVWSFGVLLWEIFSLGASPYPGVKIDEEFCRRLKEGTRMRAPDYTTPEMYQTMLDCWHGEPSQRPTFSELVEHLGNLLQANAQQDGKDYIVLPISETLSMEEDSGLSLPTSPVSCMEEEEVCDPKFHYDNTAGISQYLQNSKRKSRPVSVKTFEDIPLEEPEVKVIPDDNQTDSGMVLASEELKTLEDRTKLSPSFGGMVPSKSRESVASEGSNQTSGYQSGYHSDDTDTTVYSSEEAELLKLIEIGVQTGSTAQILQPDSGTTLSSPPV
Receptor tyrosine-protein kinase erbB-2, sequence (P04626 whole entry): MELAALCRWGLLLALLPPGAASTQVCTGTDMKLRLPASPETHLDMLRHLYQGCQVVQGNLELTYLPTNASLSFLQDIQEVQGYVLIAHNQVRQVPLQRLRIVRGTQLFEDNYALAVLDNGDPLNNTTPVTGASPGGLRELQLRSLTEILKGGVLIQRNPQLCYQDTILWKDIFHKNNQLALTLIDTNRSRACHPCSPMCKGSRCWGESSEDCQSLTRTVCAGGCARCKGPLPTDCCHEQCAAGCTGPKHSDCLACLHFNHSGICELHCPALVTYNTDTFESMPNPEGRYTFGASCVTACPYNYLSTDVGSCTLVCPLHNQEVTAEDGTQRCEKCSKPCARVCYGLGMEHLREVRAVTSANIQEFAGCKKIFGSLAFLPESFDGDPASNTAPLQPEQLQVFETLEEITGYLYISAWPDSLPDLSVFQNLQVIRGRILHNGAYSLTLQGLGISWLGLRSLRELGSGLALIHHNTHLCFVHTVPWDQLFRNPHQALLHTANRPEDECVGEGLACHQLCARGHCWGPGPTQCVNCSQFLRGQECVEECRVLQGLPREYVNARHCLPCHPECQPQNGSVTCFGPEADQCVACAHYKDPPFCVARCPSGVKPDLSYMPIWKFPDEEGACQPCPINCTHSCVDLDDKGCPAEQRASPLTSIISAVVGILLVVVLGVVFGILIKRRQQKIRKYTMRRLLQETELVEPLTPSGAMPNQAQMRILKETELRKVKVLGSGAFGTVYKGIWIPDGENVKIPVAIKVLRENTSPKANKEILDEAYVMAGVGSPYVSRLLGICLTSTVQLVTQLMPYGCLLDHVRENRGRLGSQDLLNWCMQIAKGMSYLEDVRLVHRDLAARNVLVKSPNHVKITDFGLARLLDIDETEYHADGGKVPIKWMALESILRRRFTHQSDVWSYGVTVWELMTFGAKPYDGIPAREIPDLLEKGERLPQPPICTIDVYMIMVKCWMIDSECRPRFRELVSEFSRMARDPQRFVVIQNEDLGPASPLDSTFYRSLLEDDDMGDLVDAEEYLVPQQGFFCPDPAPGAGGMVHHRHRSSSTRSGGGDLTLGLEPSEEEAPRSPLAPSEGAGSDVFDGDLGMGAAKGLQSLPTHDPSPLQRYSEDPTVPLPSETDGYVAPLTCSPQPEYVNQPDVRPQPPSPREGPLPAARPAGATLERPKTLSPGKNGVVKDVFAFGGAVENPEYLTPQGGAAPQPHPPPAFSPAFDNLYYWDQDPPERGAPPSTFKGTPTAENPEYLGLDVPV

IC50 (A-375) | IC50 (HCT-116) | IC50 [2] | IC50 [3] | IC50 (HeLa) | IC50 [12] | Compound | also measured
46 nM | 95 nM | 100 nM | > 1000 nM | 140 nM | – | CCNCc1cncc(-c2cnc3[nH]nc(-c4nc5cc(F)c(F)cc5[nH]4)c3c2)c1 | solubility [1]: 12.5 mg/mL (≈ 30.8 mM)
51 nM | 94 nM | 150 nM | 800 nM | 59 nM | – | CCNCc1cncc(-c2cnc3n[nH]c(-c4nc5ccc(F)cc5[nH]4)c3c2)c1 | half-life [4]: 31.3 h; half-life [5]: 16.1 h; AUC (Rattus norvegicus): 372 ng·h/mL; Cmax [6]: 3.8 ng/mL; solubility [1]: 12.5 mg/mL (≈ 32.3 mM); bioavailability [7]: 8%; Cmax [8]: 217 ng/mL; AUC [9]: 150 ng·h/mL
– | 890 nM | > 100000 nM | > 10000 nM | 1760 nM | – | OCc1cccc2[nH]c(-c3n[nH]c4ncc(-c5cncc6ccccc56)cc34)nc12 | IC50 [10]: 240 nM
10 nM | 10 nM | 460 nM | 320 nM | 15 nM | – | COCc1cccc2[nH]c(-c3n[nH]c4ncc(-c5cncc6ccccc56)cc34)nc12 | –
910 nM | 2880 nM | 100 nM | > 1000 nM | 2140 nM | – | CC(C)OCc1cccc2[nH]c(-c3n[nH]c4ncc(-c5cncc6ccccc56)cc34)nc12 | –
11 nM | – | > 100000 nM | > 100000 nM | 1460 nM | – | COCc1cccc2[nH]c(-c3n[nH]c4ncc(-c5cnc6ccccc6c5)cc34)nc12 | IC50 [10]: > 100000 nM; IC50 [11]: > 100000 nM
23 nM | 62 nM | 110 nM | > 1000 nM | 3090 nM | – | COCc1cccc2[nH]c(-c3n[nH]c4ncc(-c5ccncc5)cc34)nc12 | –
160 nM | 330 nM | 110 nM | 10000 nM | 9910 nM | – | COCc1cccc2[nH]c(-c3n[nH]c4ncc(-c5cncnc5)cc34)nc12 | –
47 nM | 31 nM | 1550 nM | – | 29 nM | 1.8 nM | CCN(CC)Cc1cccc2[nH]c(-c3n[nH]c4ncc(-c5cncc6ccccc56)cc34)nc12 | IC50 [10]: 89 nM
160 nM | 360 nM | – | – | 450 nM | 14 nM | CN1CCN(c2ccc3[nH]c(-c4n[nH]c5ncc(-c6cncc7ccccc67)cc45)nc3c2)CC1 | clearance [13]: 34.9 mL/min/kg; half-life [4]: 3.3 h; half-life [5]: 0.73 h; AUC [14]: 959 ng·h/mL; Cmax [6]: 65 ng/mL; bioavailability [7]: 4%; Cmax [8]: 1000 ng/mL; AUC [9]: 173 ng·h/mL
300 nM | 370 nM | 1070 nM | 41 nM | 400 nM | – | c1ccc2c(-c3cnc4[nH]nc(-c5nc6cc(N7CCOCC7)ccc6[nH]5)c4c3)cncc2c1 | –
> 10000 nM | > 10000 nM | > 10000 nM | > 10000 nM | > 10000 nM | – | O=C(O)c1cccc2[nH]c(-c3n[nH]c4ncc(-c5cncc6ccccc56)cc34)nc12 | –
65 nM | 42 nM | 380 nM | > 100 nM | 35 nM | 39 nM | CC(C)NC(=O)c1cccc2[nH]c(-c3n[nH]c4ncc(-c5cncc6ccccc56)cc34)nc12 | –
330 nM | 190 nM | 1600 nM | 3750 nM | 1230 nM | 120 nM | COCc1cccc2[nH]c(-c3n[nH]c4ncc(-c5cncc(CN(C)C)c5)cc34)nc12 | –
– | – | 4670 nM | 8020 nM | – | 110 nM | CCNCc1cncc(-c2cnc3[nH]nc(-c4nc5c(COC)cccc5[nH]4)c3c2)c1C | –
71 nM | 55 nM | 10000 nM | 1000 nM | 170 nM | – | CCN(CC)C(=O)c1cccc2[nH]c(-c3n[nH]c4ncc(-c5cncc6ccccc56)cc34)nc12 | IC50 [10]: > 10000 nM
260 nM | 200 nM | > 100000 nM | 100000 nM | 1170 nM | 120 nM | COCc1cccc2[nH]c(-c3nn(C)c4ncc(-c5cncc6ccccc56)cc34)nc12 | –
870 nM | 550 nM | – | – | 1700 nM | 23 nM | c1ccc2c(-c3cnc4[nH]nc(-c5nc6ccccc6[nH]5)c4c3)cncc2c1 | –
7380 nM | – | 100000 nM | – | 10500 nM | 10000 nM | COC(=O)c1cccc2[nH]c(-c3n[nH]c4ncc(-c5cncc6ccccc56)cc34)nc12 | –
– | – | – | 3990 nM | – | – | CCCNCc1cncc(-c2cnc3[nH]nc(-c4nc5c(COC)cccc5[nH]4)c3c2)c1 | solubility [1]: 12.5 mg/mL (≈ 29.2 mM)
630 nM | 540 nM | 25 nM | 280 nM | 470 nM | 3 nM | CCNCc1cncc(-c2cnc3[nH]nc(-c4nc5cc(N6CCN(C)CC6)ccc5[nH]4)c3c2)c1 | solubility [1]: 12.5 mg/mL (≈ 26.7 mM)
270 nM | 310 nM | 640 nM | > 1000 nM | 460 nM | 2.5 nM | CNCc1cncc(-c2cnc3[nH]nc(-c4nc5c(COC)cccc5[nH]4)c3c2)c1 | IC50 [11]: 1000 nM
1720 nM | 1640 nM | 10000 nM | – | 3090 nM | – | Cc1cccc2[nH]c(-c3n[nH]c4ncc(-c5cncc6ccccc56)cc34)nc12 | IC50 [10]: 1000 nM
33 nM | 19 nM | 160 nM | > 1000 nM | 650 nM | 29 nM | COCc1cccc2[nH]c(-c3n[nH]c4ncc(-c5cccnc5)cc34)nc12 | –
47 nM | 55 nM | > 100 nM | 1000 nM | – | 9 nM | CNCc1cncc(-c2cnc3[nH]nc(-c4nc5cc(OC(F)(F)F)ccc5[nH]4)c3c2)c1 | solubility [1]: 12.5 mg/mL (≈ 28.4 mM)
140 nM | 110 nM | 1000 nM | 3620 nM | 130 nM | 13 nM | CC(C)NCc1cccc2[nH]c(-c3n[nH]c4ncc(-c5cncc6ccccc56)cc34)nc12 | –
100 nM | 49 nM | > 100 nM | 360 nM | 32 nM | – | CCNCc1cncc(-c2cnc3[nH]nc(-c4nc5cc(OC)ccc5[nH]4)c3c2)c1 | solubility [1]: 12.5 mg/mL (≈ 31.3 mM); IC50 [11]: 1000 nM

Reference: ChEMBL document CHEMBL1140014, “Synthesis and evaluation of pyrazolo[3,4-b]pyridine CDK1 inhibitors as anti-tumor agents” (Bioorg Med Chem Lett, 2007)
